Here are results for 3 compounds from ChEMBL document CHEMBL5241082, “Discovery and Characterization of Benzimidazole Derivative XY123 as a Potent, Selective, and Orally Available RORγ Inverse Agonist” (J Med Chem, 2021).

Data set [1] in a line: in vitro. Particulars: human, liver microsomes.
Data set [2] can be described thus: in vitro. As to conditions: rat, liver microsomes.
Data set [3] in a line: in vivo. As to conditions: Sprague-Dawley, rat, iv, 5 mg/kg.

Consider `CCS(=O)(=O)c1ccc(CC(=O)Nc2ccc(-c3nc4ccc(C(F)(F)F)cc4n3[C@H](C)c3ccc(F)cc3)cc2)cc1`, for which the half-life at 1 µM in data set [1] was 0.0505 h; in data set [2] it was 0.373 h. In data set [3], this compound had a clearance at 24 h of 3 mL/min/kg.

For the compound `CCS(=O)(=O)c1ccc(CC(=O)Nc2ccc(-c3nc4ccc(C(F)(F)F)cc4n3[C@@H](C)c3ccc(F)cc3)cc2)cc1`, the half-life at 1 µM in data set [1] and in data set [2] was more than 2 h in each case. For the same compound, the clearance at 24 h in data set [3] was 3.33 mL/min/kg.

Consider `O=C(c1ccc(F)cc1)C1CCN(CCn2c(=O)[nH]c3ccccc3c2=O)CC1` [KETANSERIN], for which the half-life at 1 µM in data set [1] and in data set [2] was more than 2 h throughout.
